Reference: patent US20240082200A1, “4-THIOCARBAMOYLPHENYL 2-(4-OXOPHENYL)-PHENYL PROPANOATE FOR THE TREATMENT OF PAIN ASSOCIATED WITH UROLOGIC CHRONIC PELVIC PAIN SYNDROME” (Antibe Therapeutics Inc., priority 2022, published 2024)
“Also recorded” adds a separate entry of the source.

Tests used:
[1] = tested on: cyclophosphamide (CYP)-induced interstitial cystitis; test: Mechanical allodynia (electronic von Frey) in CYP-induced cystitis mice; format: in vivo, male C57BL/6 SPF mice; conditions: for reversal of abdominal mechanical allodynia (withdrawal threshold, AUC 21 to 24 h after CYP): 21 h after CYP
Procedure: Experiments were conducted with male C57BL/6 SPF mice (6-10 weeks of age) obtained from the animal care facilities at the Faculty of Medicine, University of Sao Paulo, Brazil. Mice were randomly separated into different treatment groups (n=5 to 7 per group). Groups of five or fewer mice were kept in Perspex cages under standard controlled conditions (22° C.; 12/12 h light/dark cycle) with free access to food (Nuvilab CR-1, Quimtia S/A, Brazil) and filtered tap water. The study was performed in agreement with the guidelines from the Brazilian Council for Control of Animal Experimentation (CONCEA) guidelines, consistent with the Animal Welfare Act. All the experimental protocols were approved by the local ethics committee (CEUA—ICB; protocol n ° 2055050819). According to the internal laboratory rules, euthanasia was performed if severe distress related to the test agents developed during the experiment.
Cystitis was induced by a single i.p. injection of cyclophosphamide CYP (300 mg kg^−1; Oliveira et al., 2018), while the control group received an i.p. injection of saline (10 ml kg^−1). […] The drugs were dissolved in 0.5% CMC at a concentration of 10 ml/kg^−1.
The mice were individually placed in a clear Perspex testing chamber (11 cm×9.5 cm×18 cm) on an elevated wire grid platform (0.5 cm2 grid) for an adequate acclimatization (˜1 h). Mechanical sensitivity assessment was performed with the aid of an electronic von Frey apparatus (Insight Inc., Ribeiräo Preto, SP, Brazil) with groups of 5-7 mice each, as described previously (Costa et al., 2020). Force-generating pressure was applied to the lower abdomen in the vicinity of the bladder (pelvic region between the urethra and the anus) with a pressure transducer connected to a digital force detector (Insight Ltd, Ribeiräo Preto/SP, Brazil). Retraction of the abdomen (mechanical allodynia) from the probe was considered as a positive response to the stimuli and were recorded in grams (g). […] All mechanical sensitivity testing was performed in a blinded manner. Response threshold data were analyzed via analysis of variance (ANOVA) followed by Tukey's post hoc test. All mice were euthanized with an overdose of isoflurane followed by cervical dislocation.

[2] = tested on: gastric mucosa; test: Assessment of gastric lesions in IC/BPS mice; format: in vivo, male C57BL/6 SPF mice; conditions: 3 h after oral dose, compound of Formula I 77 mg kg^-1 / ketoprofen 50 mg kg^-1 (equimolar)
Procedure: Briefly, mice from distinct experimental groups were euthanized by cervical dislocation under isoflurane anesthesia, and the stomach was excised, opened along the smaller curvature, rinsed gently with saline and then photographed with a digital camera (Samsung Galaxy S20, Campinas/SP, Brazil). The hemorrhagic gastric lesion area was measured blindly (mm^2) using computerized planimetry software (ImageJ, Maryland, USA).

[3] = tested on: bladder strips; test: Bladder functional assay in vitro (bladder strips from treated CYP-cystitis mice); format: in vivo, male C57BL/6 SPF mice; conditions: for reduced contractile response of CYP bladder strips to KCl (80 mM): improvement: bladders taken 24 h after CYP
Procedure: The drugs were dissolved in 0.5% CMC at a concentration of 10 ml/kg^−1.
After 24 h, mice with CYP-induced cystitis were euthanized and the bladders were immediately transferred into a petri-dish. […] The bladders were divided into two longitudinal strips and mounted in an isolated organ bath system (Panlab Harvard, Massachussetts, USA) containing Krebs Henseleit solution at 37° C. (pH 7.4, O2/CO2 […] v/v) under a resting tension of 5 mN. Tissues were allowed to stabilize for 1 h, and during this period the bathing solution was replaced every 15 min. Isometric force was recorded using a PowerLab 8/30 Data Acquisition System (Software Chart, version 6.0, ADInstrument, Milford, MA, USA).

[4] = tested on: periodontitis; conditions: compared with ketoprofen (parent drug); cited from earlier work
[5] = in vivo; cited from earlier work
[6] = tested on: surgical incision pain model; conditions: mice; cited from earlier work

In the case of `CC(C(=O)Oc1ccc(C(N)=S)cc1)c1ccc(C(=O)c2ccccc2)cc1` (centres unmarked) [compound of Formula I, 4-thiocarbamoylphenyl 2-(4-oxophenyl)-phenyl propanoate], the “reversal of abdominal mechanical allodynia (withdrawal threshold, AUC 21 to 24 h after CYP)” value (shortened to “reversal”) ([1]; equimolar dose compound of Formula I 15 mg kg^-1 / ketoprofen 10 mg kg^-1, p.o., vs CYP + CMC 0.5%) is reported as “significant dose-dependent differences”, the “reversal” value ([1]; equimolar dose compound of Formula I 46 mg kg^-1 / ketoprofen 30 mg kg^-1, p.o., vs CYP + CMC 0.5%) is reported as “significant dose-dependent differences” and the “reversal” value ([1]; equimolar dose compound of Formula I 77 mg kg^-1 / ketoprofen 50 mg kg^-1, p.o., vs CYP + CMC 0.5%) is reported as “significant dose-dependent differences”. For the same compound, the “analgesic effect as compared to equimolar ketoprofen (mechanical allodynia AUC)” value ([1]; highest equimolar dose, 77 mg kg^-1 p.o. vs ketoprofen 50 mg kg^-1, P<0.001) was “enhanced analgesic effects”, the “anti-hyperalgesic effect on decreased abdominal withdrawal threshold (mechanical allodynia, AUC 21 to 24 h after CYP)” value ([1]; lowest equimolar dose (compound of Formula I 4.6 mg kg^-1 / ketoprofen 3 mg kg^-1), p.o., 21 h after CYP 300 mg kg^-1 i.p., vs CYP + CMC 0.5%) was “no an anti-hyperalgesic effect” and the “potency compared with ketoprofen (abdominal hyperalgesic state and bladder contractile response, CYP-induced IC/BPS model)” value ([1]; orally administered as a single dose) was “greater than that of ketoprofen”. For the same compound, the “hemorrhagic gastric lesions (gastric mucosal hemorrhagic injury)” value [2] was “did not; also recorded: normal gastric mucosa”, the “reduced contractile response of CYP bladder strips to KCl (80 mM): improvement” value (“reduced contractile response” below) ([3]; equimolar dose compound of Formula I 15 mg kg^-1 / ketoprofen 10 mg kg^-1 p.o., vs CYP control) was “significantly and dose-dependently increased” and the “reduced contractile response” value ([3]; equimolar dose compound of Formula I 46 mg kg^-1 / ketoprofen 30 mg kg^-1 p.o., vs CYP control) was “significantly and dose-dependently increased”. For the same compound, the “reduced maximal (Emax) contractile response elicited by carbachol (CCh) in bladder strips of IC/BPS mice: improvement” value ([3]; high doses (compound of Formula I 77 mg kg^-1 / ketoprofen 50 mg kg^-1 p.o.)) was “significantly increased”, the “reduced contractile response” value ([3]; high doses: compound of Formula I 77 mg kg^-1 / ketoprofen 50 mg kg^-1 p.o.) was “neither compound of Formula I (77 mg kg^−1) nor ketoprofen (50 mg kg^−1) significantly improved” and the “potency and effectiveness in periodontitis versus parent drug” value [4] was “more potent and effective”. For the same compound, the “GI safety compared to ketoprofen” value [5] was “increased GI safety” and the “efficacy over ketoprofen in surgical incision pain model” value [6] was “increased efficacy”.
